# Measured values as given in paper PMC10617418, “Identification of tanshinone I as cap-dependent endonuclease inhibitor with broad-spectrum antiviral effect” (Journal of Virology, 2023).
# Where two headings read alike, the source gives them in different places.
# Legend:
# SFTSV EndoN [1] = target: T1, SFTSV EndoN (Dabie bandavirus, UniProt I0DF35); experiment: biochemical
# [2] = cytotoxicity by CCK8 assay; conditions: African green monkey, Vero cells
# LCMV EndoN = target: T2, LCMV EndoN (Lymphocytic choriomeningitis virus, UniProt P14240); experiment: biochemical
# T2 sequence (P14240 26-287 limits assumed): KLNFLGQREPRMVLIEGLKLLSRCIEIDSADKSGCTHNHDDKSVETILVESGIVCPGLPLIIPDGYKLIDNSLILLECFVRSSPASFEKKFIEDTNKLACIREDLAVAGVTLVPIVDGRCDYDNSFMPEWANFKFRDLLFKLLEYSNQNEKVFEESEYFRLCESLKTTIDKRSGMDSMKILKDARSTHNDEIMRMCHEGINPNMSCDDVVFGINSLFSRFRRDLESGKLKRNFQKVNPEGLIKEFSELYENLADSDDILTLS
# [3] = pharmacokinetic analysis in rats; conditions: 20 mg/kg
# SFTSV [4] = conditions: mouse, in vivo
# SFTSV [5] = experiment: microbe, parasite or virus in culture; conditions: Severe fever with thrombocytopenia syndrome virus, Vero, 36 h, read-out: EC50 (Vero) against SFTSV
# LCMV [6] = conditions: mouse, in vivo
# SFTSV [7] = tested on: SFTSV
# SFTSV [8] = type: cell-based, severe fever with thrombocytopenia syndrome virus
# SFTSV EndoN [9] = target: T1, SFTSV EndoN; experiment: biochemical; type: binding
# SFTSV EndoN [10] = target: T1, SFTSV EndoN; type: biochemical
# IAV (H1N1) [11] = experiment: microbe, parasite or virus in culture; type: cell-based; conditions: Influenza A virus, H1N1, MDCK, read-out: EC50 against IAV (H1N1)
# IAV (H1N1) [12] = conditions: mouse, in vivo
# HRTV = experiment: microbe, parasite or virus in culture; type: cell-based; conditions: Heartland virus, Vero, 36 h, read-out: EC50 against HRTV
# water solubility = type: physicochemical
# LCMV [13] = experiment: organism not typed; type: cell-based, lymphatic choriomeningitis virus; conditions: BHK-21, read-out: EC50 against LCMV
# GTV = experiment: microbe, parasite or virus in culture; type: cell-based; conditions: Guertu virus, Vero, 36 h, read-out: EC50 against GTV
# SFTSV [14] = experiment: microbe, parasite or virus in culture; type: cell-based; conditions: Severe fever with thrombocytopenia syndrome virus, Huh-7, 36 h, read-out: EC50 (Huh 7) against SFTSV
# [15] = compared with tanshinone IIA; cited from earlier work
# [16] = male, Sprague-Dawley, rat, plasma, ip
# [17] = male, Sprague-Dawley, rat, plasma, iv
# T1 sequence (I0DF35 20-221 limits assumed): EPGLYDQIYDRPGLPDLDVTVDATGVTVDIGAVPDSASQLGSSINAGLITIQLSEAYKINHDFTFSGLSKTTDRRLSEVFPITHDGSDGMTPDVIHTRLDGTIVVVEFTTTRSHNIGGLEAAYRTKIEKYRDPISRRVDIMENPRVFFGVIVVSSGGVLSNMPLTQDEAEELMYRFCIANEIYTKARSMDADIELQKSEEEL
Compound,CC50 at 36 h [2] [µM],EC50 (SFTSV [5]) [µM],SI (CC50/EC50) (SFTSV [7]),stage of action in time-of-addition experiment (SFTSV [8]),inhibition of cleavage of FAM-labeled ssRNA substrate (SFTSV EndoN [10]),EC50 (IAV (H1N1) [11]) [µM],EC50 (HRTV) [µM],EC50 (LCMV [13]) [µM],EC50 (GTV) [µM],EC50 (SFTSV [14]) [µM],other results
"Cc1coc2c1C(=O)C(=O)c1c-2ccc2c(C)cccc12 [Tanshinone I, tanshinone I]",245,2.03,121,acted at the post-entry stage,significantly inhibited the cleavage,1.04,0.32,2.92,0.45,0.44,"EC50 (SFTSV EndoN [1]): 308 µM; EC50 (LCMV EndoN): 365 µM; bioavailability ([3]; i.g. or i.p., SD rats): poor; AUC(0-t) [3, 16]: 265 ng·h/mL; Cmax [3, 16]: 12.8 ng/mL; Tmax [3, 16]: 2.5 h; half-life [3, 16]: 35 h; AUC(0-t) [3, 17]: 412 ng·h/mL; Cmax [3, 17]: 284 ng/mL; half-life [3, 17]: 16.1 h; body weight change (SFTSV [4]): less than 10%; influence on body weight (LCMV [6]): negligible influence; viral copies and proinflammatory factors in the liver (LCMV [6]; iv): reduced; inhibition of SFTSV in time-of-addition experiment by IFA (SFTSV [8]): significant inhibitory activities under the post-entry and full-time treatment patterns; Kd (SFTSV EndoN [9]): 680 µM; influence on body weight (IAV (H1N1) [12]): negligible influence; lung pathology (H&E staining) (IAV (H1N1) [12]): significant pathological remission; viral copies in the lung (IAV (H1N1) [12]): lowered the viral copies in the lung; proinflammatory factors in the lung (IAV (H1N1) [12]; iv): downregulated; water solubility (water solubility): poor water solubility"
"COc1c(CC=C(C)C)c(O)cc2oc(=O)c(-c3ccc(O)cc3O)cc12 [Glycycoumarin, glycycoumarin]",46.3,1.86,25,,,,,,,3.75,
"Cc1cc(O)c2c(c1)C(=O)c1cc(O)cc(O)c1C2=O [Emodin, emodin]",145,2.75,53,,,,,,,1.07,inhibition of SFTSV in time-of-addition experiment by IFA (SFTSV [8]): significant inhibitory activities under the post-entry and full-time treatment patterns
"CC(C)=CCc1cc2c(=O)cc(-c3ccc(O)cc3)oc2cc1O [Licoflavone A, licoflavone A]",63.8,2.8,23,acted at both the entry and post-entry stages,,,,,,2.5,
"NC(=O)c1nc(F)c[nH]c1=O [T-705, favipiravir, reference compound]",,~47,,comparable inhibition rate under the post-infection and full-time treatment patterns but had a negligible influence on the virions or at the entry stage,,,,,,,"expression of proinflammatory factors (TNF-α, IL-1β, IL-6, IL-18) in blood and spleen (SFTSV [4]): markedly decreased; toxicity in mice (body weight) within 3 days (SFTSV [4]): neither tanshinone IIA nor T-705 exhibited obvious toxicity; viral copies in blood and spleen (SFTSV [4]): effectively reduced; influence on body weight (LCMV [6]): negligible influence; influence on body weight (IAV (H1N1) [12]): negligible influence; lung pathology (H&E staining) (IAV (H1N1) [12]): significant pathological remission"
"CC(C)=CCc1c(O)ccc(-c2coc3cc(O)cc(O)c3c2=O)c1O [Licoisoflavone A, licoisoflavone A]",167,3.8,44,,,,,,,1.53,
"Cc1coc2c1C(=O)C(=O)c1c-2ccc2c1CCCC2(C)C [Tanshinone IIA, tanshinone IIA]",242,2.86,85,,significantly inhibited the cleavage,4.02,1.64,4.64,1.2,,"EC50 (SFTSV EndoN [1]): 917 µM; EC50 (LCMV EndoN): 597 µM; expression of proinflammatory factors (TNF-α, IL-1β, IL-6, IL-18) in blood and spleen (SFTSV [4]): markedly decreased; toxicity in mice (body weight) within 3 days (SFTSV [4]): neither tanshinone IIA nor T-705 exhibited obvious toxicity; viral copies in blood and spleen (SFTSV [4]): effectively reduced; Kd (SFTSV EndoN [9]): 740 µM"
"COc1c(/C=C/C(=O)c2ccc(O)c(CC=C(C)C)c2)ccc(O)c1O [Licochalcone D, licochalcone D]",40,4,10,,,,,,,4.29,
Cc1c(S(=O)(=O)[O-])oc2c1C(=O)C(=O)c1c-2ccc2c1CCCC2(C)C.[Na+] [tanshinone IIA sulfonate sodium],,,,,,,,,,,antiviral activity against SFTSV relative to tanshinone I or IIA (SFTSV [7]): poorer antiviral activity; water solubility [15]: significantly improved water solubility
"O=C1c2c(O)c(=O)ccn2N([C@@H]2c3ccccc3SCc3c2ccc(F)c3F)[C@@H]2COCCN12 [Baloxavir, baloxavir, reference compound]",55.2,5.66,10,,partially inhibited the cleavage,0.00102,1.32,2.63,3.74,,
